Laboratory results: PMC6127216, “The quaternary structure of Thermus thermophilus aldehyde dehydrogenase is stabilized by an evolutionary distinct C-terminal arm extension” (Scientific Reports, 2018)

Tests used:
[1] = target: native aldehyde dehydrogenase from Thermus thermophilus (ALDHTt native) (Thermus thermophilus); test: crystal structure; sitting-drop vapor diffusion at 20 °C against 50 mM MOPS pH 7.5 and 1.2 M ammonium sulfate; space group P4(1)2(1)2, two copies in the asymmetric unit, tetramer by NCS and crystallographic symmetry; recombinant proteins in the same conditions (ALDHTt515 with 1 mM NADP+, ALDHTt530 with 50 mM propanal)
ALDHTt515 [2] = target: T1, ALDHTt515 (Thermus thermophilus, UniProt Q72KD3); test: X-ray crystal structure; conditions: co-crystallised with 1 mM NADP+; cofactor binding cleft
T1 construct: gene TT_C0513; C-terminal truncation lacking the last 15 of 530 residues; tetramer; not the natural 515-residue HB8 enzyme

ALDHTt508 = target: T2, ALDHTt508 (Thermus thermophilus, UniProt Q72KD3); test: fluorescence of NADH formation; type: biochemical; conditions: 0.4 mM NAD+, 1 mM hexanal, pH 8.0, 50 °C; turnover only
T2 construct: gene TT_C0513; C-terminal truncation after residue 508 of 530; tetramer

ALDHTt515 [3] = target: T1, ALDHTt515; test: fluorescence of NADH formation; type: biochemical; conditions: 0.4 mM NAD+, 1 mM hexanal, pH 8.0, 50 °C; turnover only
[4] = target: T3, ALDHTt530 (recombinant wild type ALDHTt) (Thermus thermophilus, UniProt Q72KD3); test: X-ray crystal structure; type: binding; conditions: crystals with 50 mM propanal; substrate entry channel, anchor loop
T3 construct: gene TT_C0513; full length, 530 residues; homotetramer; 6FJX is the native protein
T3 sequence (Q72KD3 1-530): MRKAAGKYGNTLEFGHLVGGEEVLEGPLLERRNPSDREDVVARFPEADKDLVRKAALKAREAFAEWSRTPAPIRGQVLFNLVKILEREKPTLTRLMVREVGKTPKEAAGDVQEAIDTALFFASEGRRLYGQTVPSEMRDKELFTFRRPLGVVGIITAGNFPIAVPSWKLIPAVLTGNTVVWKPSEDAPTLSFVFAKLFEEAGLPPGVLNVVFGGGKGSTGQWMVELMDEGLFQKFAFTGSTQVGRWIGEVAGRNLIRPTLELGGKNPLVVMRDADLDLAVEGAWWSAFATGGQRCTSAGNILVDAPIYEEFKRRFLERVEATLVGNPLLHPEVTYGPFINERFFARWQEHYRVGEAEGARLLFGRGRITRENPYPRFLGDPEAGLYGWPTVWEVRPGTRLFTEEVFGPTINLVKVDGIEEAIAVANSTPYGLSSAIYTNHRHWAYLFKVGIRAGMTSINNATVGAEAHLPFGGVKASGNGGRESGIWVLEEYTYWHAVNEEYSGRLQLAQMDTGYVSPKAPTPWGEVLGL

[5] = substrate: CCC=O; test: fluorescence of NADH formation; type: biochemical, Thermus thermophilus; conditions: 25 °C, NAD+ as cofactor, pH 8.0 (standard assay)

## native aldehyde dehydrogenase from Thermus thermophilus (ALDHTt native) (enzyme)
[1]
  stoichiometry N: 4

## NC(=O)c1ccc[n+]([C@@H]2O[C@H](COP(=O)(O)OP(=O)(O)OC[C@H]3O[C@@H](n4cnc5c(N)ncnc54)[C@H](OP(=O)(O)O)[C@@H]3O)[C@@H](O)[C@H]2O)c1 [NADP^+]
ALDHTt515 [2]
  X-ray crystal structure: The co-crystal structure of ALDHTt515 was solved with NADP^+ bound

## NC(=O)c1ccc[n+]([C@@H]2O[C@H](COP(=O)(O)OP(=O)(O)OC[C@H]3O[C@@H](n4cnc5c(N)ncnc54)[C@H](O)[C@@H]3O)[C@@H](O)[C@H]2O)c1 [NAD^+]
ALDHTt508
  fluorescence of NADH formation: both truncated mutants ALDHTt508 and ALDHTt515 were slightly more active
ALDHTt515 [3]
  fluorescence of NADH formation: both truncated mutants ALDHTt508 and ALDHTt515 were slightly more active

## CCC(=O)O [propanoic acid]
[4]
  X-ray crystal structure: yielded a structure with a product molecule, propanoic acid, in monomer A and B

B1: ALDHTt530 (recombinant wild type ALDHTt) (Thermus thermophilus HB27) (protein)
chain: T3 sequence (Q72KD3 1-530)
notes: full length, 530 residues; homotetramer; 6FJX is the native protein
[5]
  Km: 2760 µM
